Data on seven compounds can be found in patent publication US20250304559A1, “Ether-Linked Antiviral Compounds” (Pfizer Inc., priority 2021, published 2025).

The target in one test is T1, SARS-CoV-2 3CL protease (Severe acute respiratory syndrome coronavirus 2, UniProt P0DTD1).
T1 construct: measures the activity of full-length SARS-CoV-2 3CL protease
Nature of the test: SARS-CoV-2 Coronavirus 3C Protease FRET Assay. The conditions noted are these: Morrison equation fit, 15 nM enzyme, 25 μM peptide substrate. It counts as biochemical.

The test system of test [1] is SARS-CoV-2 (USA_WA1/2020). The test can be described thus: Antiviral Activity from SARS-CoV-2 Infection (cytopathic effect, Cell Titer-Glo). Format: cell-based. The conditions noted are these: Severe acute respiratory syndrome coronavirus 2, Vero C1008, 72 h, VeroE6 cells enriched for hACE2, MOI 0.002, 3-day incubation; tested alone or with P-gp inhibitor CP-100356 2 μM (table does not say which); read-out: Geometric Mean EC50.

Where [2] appears, read: Examples 1-13, 60 minutes at 23° C., read-out: Geometric Mean Ki.

Molecules are shown by their SMILES. Like-named read-outs stand apart in the source and are kept apart here.

With `CCC([C@H](NS(=O)(=O)C(F)(F)F)C(=O)N1C[C@H]2[C@@H]([C@H]1C(=O)N[C@@H](C[C@@H]1CCNC1=O)C(=O)COc1ccc(F)cc1F)C2(C)C)C(F)(F)F` (stereo in doubt) [Example 63, (1R,2S,5S)-N-{(2S)-4-(2,4-difluorophenoxy)-3-oxo-1-[(3S)-2-oxopyrrolidin-3-yl]butan-2-yl}-6,6-dimethyl-3-[3′,3′,3′-trifluoro-N-(trifluoromethanesulfonyl)-L-isoleucyl]-3-azabicyclo[3.1.0]hexane-2-carboxamide], the Ki at SARS-CoV-2 3CL protease (Examples 14-78 and 114 (second head of Table 2), read-out: Geometric Mean Ki (nM) IC50) stood at 54.2 nM. For the same compound, the EC50 in test [1] came out at 5550 nM.

As to `CC(C)[C@H](NC(=O)C(F)(F)F)C(=O)N1C[C@H]2[C@@H]([C@H]1C(=O)N[C@@H](C[C@@H]1CCNC1=O)C(=O)COc1ccc(F)cc1F)C2(C)C` [Example 1, (1R,2S,5S)-N-{(2S)-4-(2,4-difluorophenoxy)-3-oxo-1-[(3S)-2-oxopyrrolidin-3-yl]butan-2-yl}-6,6-dimethyl-3-[N-(trifluoroacetyl)-L-valyl]-3-azabicyclo[3.1.0]hexane-2-carboxamide], the Ki on SARS-CoV-2 3CL protease (setting [2]) amounted to 2.02 nM. The EC50 in test [1] stood at 26.9 nM.

For the compound `CC(C)[C@H](NC(=O)C(F)(F)F)C(=O)N1C[C@H]2[C@@H]([C@H]1C(=O)N[C@H](C[C@@H]1CCNC1=O)C(=O)COc1ccc(F)cc1F)C2(C)C` [Example 2, (1R,2S,5S)-N-{(2R)-4-(2,4-difluorophenoxy)-3-oxo-1-[(3S)-2-oxopyrrolidin-3-yl]butan-2-yl}-6,6-dimethyl-3-[N-(trifluoroacetyl)-L-valyl]-3-azabicyclo[3.1.0]hexane-2-carboxamide], the Ki on SARS-CoV-2 3CL protease (setting [2]) came out at 172 nM. For the same compound, in test [1], the EC50 turned out to be 74.4 nM.

For the compound `CC(C)(C)[C@H](NS(=O)(=O)C(F)(F)F)C(=O)N1C[C@H]2[C@@H]([C@H]1C(=O)N[C@@H](C[C@@H]1CCNC1=O)C(=O)COc1ccc(F)cc1F)C2(C)C` [Example 3, (1R,2S,5S)-N-{(2S)-4-(2,4-difluorophenoxy)-3-oxo-1-[(3S)-2-oxopyrrolidin-3-yl]butan-2-yl}-6,6-dimethyl-3-{3-methyl-N-[(trifluoromethyl)sulfonyl]-L-valyl}-3-azabicyclo[3.1.0]hexane-2-carboxamide], the Ki at SARS-CoV-2 3CL protease (setting [2]) worked out at 3.5 nM. Moreover, in test [1], the EC50 came out at 207 nM.

As to `CC(C)[C@H](NS(=O)(=O)C(F)(F)F)C(=O)N1C[C@H]2[C@@H]([C@H]1C(=O)N[C@@H](C[C@@H]1CCNC1=O)C(=O)COc1ccc(F)cc1F)C2(C)C` [Example 4, (1R,2S,5S)-N-{(2S)-4-(2,4-difluorophenoxy)-3-oxo-1-[(3S)-2-oxopyrrolidin-3-yl]butan-2-yl}-6,6-dimethyl-3-{N-[(trifluoromethyl)sulfonyl]-L-valyl}-3-azabicyclo[3.1.0]hexane-2-carboxamide], on SARS-CoV-2 3CL protease (setting [2]), the Ki came out at 6.34 nM. Besides, the EC50 in test [1] came out at 395 nM.

For `CC(C)[C@H](NS(=O)(=O)C(F)(F)F)C(=O)N1C[C@H]2[C@@H]([C@H]1C(=O)N[C@@H](C[C@@H]1CCNC1=O)C(=O)COc1cccc(C(F)(F)F)c1)C2(C)C` [Example 5, (1R,2S,5S)-6,6-dimethyl-N-{(2S)-3-oxo-1-[(3S)-2-oxopyrrolidin-3-yl]-4-[3-(trifluoromethyl)phenoxy]butan-2-yl}-3-{N-[(trifluoromethyl)sulfonyl]-L-valyl}-3-azabicyclo[3.1.0]hexane-2-carboxamide], the Ki on SARS-CoV-2 3CL protease (setting [2]) worked out at 10.6 nM. In addition, in test [1], the EC50 was 205 nM.

Turning to `Cn1nc(C(F)(F)F)cc1OCC(=O)[C@H](C[C@@H]1CCNC1=O)NC(=O)[C@@H]1[C@@H]2[C@H](CN1C(=O)[C@@H](NS(=O)(=O)C(F)(F)F)C(C)(C)C)C2(C)C` [Example 6, (1R,2S,5S)-6,6-dimethyl-N-{(2S)-4-{[1-methyl-3-(trifluoromethyl)-1H-pyrazol-5-yl]oxy}-3-oxo-1-[(3S)-2-oxopyrrolidin-3-yl]butan-2-yl}-3-{3-methyl-N-[(trifluoromethyl)sulfonyl]-L-valyl}-3-azabicyclo[3.1.0]hexane-2-carboxamide], the Ki at SARS-CoV-2 3CL protease (setting [2]) worked out at 19.8 nM. Moreover, the EC50 in test [1] stood at 735 nM.
